Experimental data taken from PubChem BioAssay AID743117 (The Scripps Research Institute Molecular Screening Center, 2013).
The source made the active and inactive calls.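 The calls were made as follows: active = 50% or more inhibition of both lipases LYPLA1 and LYPLA2, with off-target enzymes other than ABHD6 below 50%; inactive = below 50% on either lipase, or hitting an off-target enzyme.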

Legend:
Experiment in all cases: LYPLA1/LYPLA2 inhibition with serine hydrolase anti-target selectivity, late-stage follow-up, selectivity assay for LYPLA1/LYPLA2 inhibitor project, cell lysate, mouse brain membrane proteome, FP-Rh fluorescence, powders (AID 743117)
[1] = test system: LYPLA1; details: gel-based ABPP FP-Rh fluorescence, at 100 µM (top of the series)
[2] = molecular target: Monoacylglycerol lipase ABHD6 (Mus musculus) (UniProt Q8R2Y0); details: gel-based ABPP FP-Rh fluorescence, measured here: ABHD6 Selectivity, anti-target concentration >50% inhibition, stronger effect = lower value
Chain of Monoacylglycerol lipase ABHD6 (Mus musculus) (Q8R2Y0 whole entry, looked up): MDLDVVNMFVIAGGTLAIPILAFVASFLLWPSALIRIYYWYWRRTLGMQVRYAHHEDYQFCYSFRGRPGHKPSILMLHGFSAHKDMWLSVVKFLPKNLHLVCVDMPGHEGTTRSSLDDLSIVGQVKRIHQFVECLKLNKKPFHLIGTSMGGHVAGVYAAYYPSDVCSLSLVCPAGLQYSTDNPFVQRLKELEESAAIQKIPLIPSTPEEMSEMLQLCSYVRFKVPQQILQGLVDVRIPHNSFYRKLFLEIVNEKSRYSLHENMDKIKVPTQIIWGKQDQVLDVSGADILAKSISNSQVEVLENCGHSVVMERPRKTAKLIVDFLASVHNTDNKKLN

[3] = test system: LYPLA2; details: gel-based ABPP FP-Rh fluorescence, at 100 µM (top of the series)
[4] = molecular target: ABHD4 Selectivity (UniProt Q8VD66); details: gel-based ABPP FP-Rh fluorescence, measured here: ABHD4 Selectivity, anti-target concentration >50% inhibition, stronger effect = lower value
Chain of ABHD4 Selectivity (Q8VD66 whole entry, looked up): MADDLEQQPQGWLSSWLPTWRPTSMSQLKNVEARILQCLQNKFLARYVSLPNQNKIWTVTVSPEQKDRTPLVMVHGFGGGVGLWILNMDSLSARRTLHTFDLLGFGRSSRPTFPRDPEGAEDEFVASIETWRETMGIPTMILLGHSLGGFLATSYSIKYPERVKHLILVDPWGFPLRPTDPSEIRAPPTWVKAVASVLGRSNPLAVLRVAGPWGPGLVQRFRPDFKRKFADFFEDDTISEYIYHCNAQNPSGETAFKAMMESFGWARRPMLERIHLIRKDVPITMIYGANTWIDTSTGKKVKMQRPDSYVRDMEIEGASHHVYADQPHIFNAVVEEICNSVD

[5] = test system: FAAH Selectivity; details: gel-based ABPP FP-Rh fluorescence, measured here: FAAH Selectivity, anti-target concentration >50% inhibition, stronger effect = lower value
[6] = test system: ABHD12 Selectivity; details: gel-based ABPP FP-Rh fluorescence, measured here: ABHD12 Selectivity, anti-target concentration >50% inhibition, stronger effect = lower value
[7] = test system: MAGL Selectivity; details: gel-based ABPP FP-Rh fluorescence, measured here: MAGL Selectivity, anti-target concentration >50% inhibition, stronger effect = lower value
[8] = test system: APEH Selectivity; details: gel-based ABPP FP-Rh fluorescence, measured here: APEH Selectivity, anti-target concentration >50% inhibition, stronger effect = lower value

inhibition [1]	concentration for >50% inhibition [2] [µM]	inhibition [3]	concentration for >50% inhibition [4] [µM]	concentration for >50% inhibition [5] [µM]	concentration for >50% inhibition [6] [µM]	concentration for >50% inhibition [7] [µM]	concentration for >50% inhibition [8] [µM]	Compound
100%	0.1	100%	–	10	10	100	–	Cc1ccc(C(=O)N2CCN3C(=O)N(OC(=O)N4CCC(CCc5ccc(Cl)cc5)CC4)C(=O)C3C2)cc1 (stereo not given)
100%	0.1	100%	–	1	–	10	–	O=C(Cc1ccccc1)N1CCN2C(=O)N(OC(=O)N3CCC(CCc4ccc(Cl)cc4)CC3)C(=O)C2C1 (stereo not given)
25% (inactive)	0.1	25% (inactive)	–	–	–	–	100	CC(C)(C)OC(=O)N1CCN2C(=O)N(OC(=O)N3CCCCC3)C(=O)C2C1 (stereo not given)
100%	0.1	100%	–	10	10	–	–	CN(C)c1ccc(C(=O)N2CCN3C(=O)N(OC(=O)N4CCC(CCc5ccc(Cl)cc5)CC4)C(=O)C3C2)cc1 (stereo not given)
100%	0.1	100%	–	10	10	100	–	O=C(ON1C(=O)C2CN(C(=O)c3ccc(F)c([N+](=O)[O-])c3)CCN2C1=O)N1CCC(CCc2ccc(Cl)cc2)CC1 (stereo not given)
100%	0.1	100%	100	10	10	100	–	O=C(ON1C(=O)C2CN(C(=O)c3ccc(Br)cc3)CCN2C1=O)N1CCC(CCc2ccc(Cl)cc2)CC1 (stereo not given)
100%	0.1	100%	–	10	100	100	–	O=C(ON1C(=O)C2CN(C(=O)N3CCOCC3)CCN2C1=O)N1CCC(CCc2ccc(Cl)cc2)CC1 (stereo not given)

More lines, now with the values behind:

Compound	inhibition [1]	concentration for >50% inhibition [2] [µM]	inhibition [3]	concentration for >50% inhibition [4] [µM]	concentration for >50% inhibition [5] [µM]	concentration for >50% inhibition [6] [µM]	concentration for >50% inhibition [7] [µM]	concentration for >50% inhibition [8] [µM]
CC(C)(C)OC(=O)N1CCN2C(=O)N(OC(=O)N3CCOCC3Cc3ccccc3)C(=O)C2C1 (stereo not given)	0% (inactive)	0.1	0% (inactive)	–	–	–	–	–
CC(C)(C)CC(=O)N1CCN2C(=O)N(OC(=O)N3CCC(CCc4ccc(Cl)cc4)CC3)C(=O)C2C1 (stereo not given)	100%	0.1	100%	100	1	10	10	–
O=C(ON1C(=O)C2CN(C(=O)N3CCCC3)CCN2C1=O)N1CCC(CCc2ccc(Cl)cc2)CC1 (stereo not given)	100%	0.1	100%	100	1	100	100	–
CC(C)(C)OC(=O)N1CCN2C(=O)N(OC(=O)N3CCN(C(c4ccc(Cl)cc4)c4ccc(Cl)cc4)CC3)C(=O)C2C1 (stereo not given)	60% (inactive)	0.1	60% (inactive)	–	–	–	–	–
O=C(ON1C(=O)C2CN(CCc3ccccc3)CCN2C1=O)N1CCC(CCc2ccc(Cl)cc2)CC1 (stereo not given)	100% (inactive)	0.1	100% (inactive)	10	10	–	10	–
CCN(C(=O)C1CCN(C(=O)ON2C(=O)C3CN(C(=O)OC(C)(C)C)CCN3C2=O)CC1)c1ccccc1 (stereo not given)	100% (inactive)	0.1	100% (inactive)	–	–	–	–	–
CC(C)(C)OC(=O)N1CCN2C(=O)N(OC(=O)N3CCN(CCc4ccccc4)CC3)C(=O)C2C1 (stereo not given)	90% (inactive)	0.1	75% (inactive)	–	100	100	–	–
COC(=O)C1CCN(C(=O)ON2C(=O)C3CN(C(=O)OC(C)(C)C)CCN3C2=O)CC1 (stereo not given)	25% (inactive)	0.1	25% (inactive)	–	–	–	–	–
COc1ccc(C(=O)N2CCN3C(=O)N(OC(=O)N4CCC(CCc5ccc(Cl)cc5)CC4)C(=O)C3C2)cc1 (stereo not given)	100%	0.1	100%	–	10	10	10	–
O=C(ON1C(=O)C2CN(Cc3ccc(Br)cc3)CCN2C1=O)N1CCC(CCc2ccc(Cl)cc2)CC1 (stereo not given)	90% (inactive)	0.1	90% (inactive)	1	1	–	100	–
CC(C)(C)OC(=O)N1CCN2C(=O)N(OC(=O)N3CCC(C(=O)Nc4ccccc4)CC3)C(=O)C2C1 (stereo not given)	50% (inactive)	0.1	25% (inactive)	–	100	–	–	–
CC(C)(C)OC(=O)N1CCN2C(=O)N(OC(=O)N3CCC(CCc4ccc(Cl)cc4)CC3)C(=O)C2C1 (stereo not given)	100%	0.1	100%	–	1	10	100	–
O=C(ON1C(=O)C2CN(C(=O)N3CCCCC3)CCN2C1=O)N1CCC(CCc2ccc(Cl)cc2)CC1 (stereo not given)	100%	0.1	100%	10	1	10	10	–
